The target of assay [1] is T1, BCL6 (Homo sapiens (Human), UniProt P41182). The assay can be described thus: BCL6 TR-FRET assay (BCL6-Avitag-Biotin / BCoR-Cy5 peptide). It counts as binding. Put shortly: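 After 30 min room-temperature preincubation of compound titrations with 2 nM biotinylated BCL6-Avitag, 100 nM Cy5-labelled BCoR peptide plus 2 nM Eu-streptavidin were added and TR-FRET read 2 h later. HEPES pH 7.5/125 mM NaCl buffer with Triton X, glutathione (or DTT) and BSA.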
In general terms: In TR-FRET formats the signal depends on donor and acceptor labels being close together.

Assay [2] deals with T1, BCL6. Nature of the assay: Immunofluorescence high content imaging of BCL6 degradation in T47D cells. It counts as cell-based. As to conditions: for Dmax: T47D; for DC50: class symbols A-D, read-out: EC50 (nM)*. Summed up: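 T47D cells were treated 3 days at 37 °C with an 11-point 3-fold dilution series (top 0.1 or 1 μM), then fixed, permeabilized and immunostained for BCL6 with Alexa-488 secondary, CellMask and Hoechst. BCL6 signal was imaged at 10×, 4 fields/well, with top-hat smoothing.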

[3] abbreviates: class symbols A-D, read-out: IC50 (nM)***.

Molecules are shown by their SMILES.

The term IC50 denotes the midpoint of a concentration-inhibition curve. By Dmax is commonly meant the greatest extent of degradation seen. A lower Dmax goes with a partial loss of target. Broadly, the EC50 is the midpoint of the concentration-response curve. Lower therefore signals a more potent agent.

Turning to `CC(=O)COc1cc2cc(Nc3nc(N4CCC(N5CCC(N(C)CCOc6ccc7c(c6)CN(C6CCC(=O)NC6=O)C7=O)C5)CC4)ncc3Cl)ccc2n(C)c1=O` (centres unmarked) [compound 157, 3-(5-(2-((1-(1-(5-chloro-4-((1-methyl-2-oxo-3-(2-oxopropoxy)-1,2-dihydroquinolin-6-yl)amino)pyrimidin-2-yl)piperidin-4-yl)pyrrolidin-3-yl) (methyl)amino)ethoxy)-1-oxoisoindolin-2-yl)piperidine-2,6-dione], on BCL6 [1] (setting [3]), the IC50 is under 10 nM. Further, the Dmax at BCL6 [2] (maximum, class symbols A-C) was 50 to 70%. Moreover, the DC50 on BCL6 [2] fell in the range of 10 to 50 nM.

With `CNC(=O)COc1cc2cc(Nc3nc(N4CCCC(COc5ccc(C6CCN(CCC(O)c7ccc8c(c7)CN(C7CCC(=O)NC7=O)C8=O)CC6)cc5)C4)ncc3Cl)ccc2n(C)c1=O` (centres unmarked) [compound 127, 2-((6-((5-chloro-2-(3-((4-(1-(3-(2-(2,6-dioxopiperidin-3-yl)-1-oxoisoindolin-5-yl)-3-hydroxypropyl)piperidin-4-yl)phenoxy)methyl)piperidin-1-yl)pyrimidin-4-yl)amino)-1-methyl-2-oxo-1,2-dihydroquinolin-3-yl)oxy)-N-methylacetamide], the concentration for half-maximal inhibition (IC50) at BCL6 [1] (setting [3]) is under 10 nM. Moreover, at BCL6 [2] (maximum, class symbols A-C), the greatest degradation seen (Dmax) was under 50%. Moreover, the DC50 on BCL6 [2] was 10 to 50 nM.

`Cn1cc(-c2cc3cc(Nc4nc(N5CCC(CN6CCN(c7ccc8c(c7)C(=O)N(C7CCC(=O)NC7=O)C8=O)CC6)CC5)ncc4Cl)ccc3n(C)c2=O)cn1` (centres unmarked) [compound 205, 5-(4-((1-(5-chloro-4-((1-methyl-3-(1-methyl-1H-pyrazol-4-yl)-2-oxo-1,2-dihydroquinolin-6-yl)amino)pyrimidin-2-yl)piperidin-4-yl)methyl)piperazin-1-yl)-2-(2,6-dioxopiperidin-3-yl)isoindoline-1,3-dione] registered a concentration giving a half-maximal response (EC50) on BCL6 [1] of over 100 nM. Also, the IC50 at BCL6 [2] was at least 100 nM.

`CNC(=O)COc1cc2cc(Nc3nc(N4CCC(CN5CCN(c6cc(OC)cc(C(=O)NC7CCC(=O)NC7=O)c6F)CC5)CC4)ncc3Cl)ccc2n(C(C)C)c1=O` (centres unmarked) [compound 466, 3-[4-({1-[5-chloro-4-({3-[(methylcarbamoyl)methoxy]-2-oxo-1-(propan-2-yl)-1,2-dihydroquinolin-6-yl}amino)pyrimidin-2-yl]piperidin-4-yl}methyl)piperazin-1-yl]-N-(2,6-dioxopiperidin-3-yl)-2-fluoro-5-methoxybenzamide]: the IC50 at BCL6 [1] (read-out: IC50) is under 10 nM. The Dmax at BCL6 [2] is 50 to 70%.

On BCL6 [1], `CNC(=O)COc1cc2cc(Nc3nc(N4CCC(CN5CCN(c6ccc7c(c6)C(=O)N(C6CCC(=O)NC6=O)C7=O)CC5)CC4)ccc3Cl)ccc2n(C)c1=O` (centres unmarked) [compound 202, 2-((6-((3-chloro-6-(4-((4-(2-(2,6-dioxopiperidin-3-yl)-1,3-dioxoisoindolin-5-yl)piperazin-1-yl)methyl)piperidin-1-yl)pyridin-2-yl)amino)-1-methyl-2-oxo-1,2-dihydroquinolin-3-yl)oxy)-N-methylacetamide] yielded an EC50 of over 100 nM. Further, on BCL6 [2], the IC50 was in the range of 50 to 100 nM and the Dmax is under 50%.

Regarding `CNC(=O)COc1cc2cc(Nc3nc(N4CCC5(CC4)CCN(C4CCN(c6ccc7c(c6)C(=O)N(C6CCC(=O)NC6=O)C7=O)CC4)C5)ncc3Cl)ccc2n(C(C)C)c1=O` (centres unmarked) [compound 514, 2-[(6-{[5-chloro-2-(2-{1-[2-(2,6-dioxopiperidin-3-yl)-1,3-dioxo-2,3-dihydro-1H-isoindol-5-yl]piperidin-4-yl}-2,8-diazaspiro[4.5]decan-8-yl)pyrimidin-4-yl]amino}-2-oxo-1-(propan-2-yl)-1,2-dihydroquinolin-3-yl)oxy]-N-methylacetamide], the IC50 on BCL6 [1] (read-out: IC50) is under 10 nM. For the same molecule, at BCL6 [2], the Dmax was under 50%.

In the case of `CNC(=O)COc1cc2cc(Nc3nc(N4CCC(CN5CCC6(CCN(c7ccc8c(c7)C(=O)N(C7CCC(=O)NC7=O)C8=O)C6)C5)CC4)ncc3Cl)ccc2n(C(C)C)c1=O` (centres unmarked) [compound 534, 2-{[6-({5-chloro-2-[4-({7-[2-(2,6-dioxopiperidin-3-yl)-1,3-dioxo-2,3-dihydro-1H-isoindol-5-yl]-2,7-diazaspiro[4.4]nonan-2-yl}methyl)piperidin-1-yl]pyrimidin-4-yl}amino)-2-oxo-1-(propan-2-yl)-1,2-dihydroquinolin-3-yl]oxy}-N-methylacetamide], the IC50 on BCL6 [1] (read-out: IC50) is under 10 nM. The molecule further returned a Dmax on BCL6 [2] of at least 70%.

For the molecule `CNC(=O)COc1cc2cc(Nc3nc(N4CCN(CC5CCN(c6cc(OC)cc(C(=O)NC7CCC(=O)NC7=O)c6F)CC5)CC4)ncc3Cl)ccc2n(C)c1=O` (centres unmarked) [compound 465, 3-[4-({4-[5-chloro-4-({1-methyl-3-[(methylcarbamoyl)methoxy]-2-oxo-1,2-dihydroquinolin-6-yl}amino)pyrimidin-2-yl]piperazin-1-yl}methyl)piperidin-1-yl]-N-(2,6-dioxopiperidin-3-yl)-2-fluoro-5-methoxybenzamide], the IC50 on BCL6 [1] (read-out: IC50) is under 10 nM. Also, the Dmax at BCL6 [2] is 50 to 70%.

In the case of `CNC(=O)COc1cc2cc(Nc3nc(N4CCC5(CC4)CN(CC4CCN(c6ccc(C(=O)NC7CCC(=O)NC7=O)c(OC)c6)CC4)C5)ncc3Cl)ccc2n(C(C)C)c1=O` (centres unmarked) [compound 447, 4-[4-({7-[5-chloro-4-({3-[(methylcarbamoyl)methoxy]-2-oxo-1-(propan-2-yl)-1,2-dihydroquinolin-6-yl}amino)pyrimidin-2-yl]-2,7-diazaspiro[3.5]nonan-2-yl}methyl)piperidin-1-yl]-N-(2,6-dioxopiperidin-3-yl)-2-methoxybenzamide], at BCL6 [1] (read-out: IC50), the IC50 fell in the range of 10 to 50 nM. This molecule showed a Dmax at BCL6 [2] of at least 70%.

In the case of `CC(=O)COc1cc2cc(Nc3nc(N4CCC(CN5CCN(c6ccc7c(c6)C(=O)N(C6CCC(=O)NC6=O)C7=O)CC5)CC4)ncc3Cl)ccc2n(C)c1=O` (centres unmarked) [compound 152, 5-(4-((1-(5-chloro-4-((1-methyl-2-oxo-3-(2-oxopropoxy)-1,2-dihydroquinolin-6-yl)amino)pyrimidin-2-yl)piperidin-4-yl)methyl)piperazin-1-yl)-2-(2,6-dioxopiperidin-3-yl)isoindoline-1,3-dione], the IC50 on BCL6 [1] (setting [3]) was in the range of 50 to 100 nM. On BCL6 [2] (maximum, class symbols A-C), this molecule showed a maximal degradation (Dmax) of 50 to 70%. In addition, the DC50 on BCL6 [2] fell in the range of 10 to 50 nM.

For the molecule `CNC(=O)COc1cc2cc(Nc3nc(N4CCN(CC5CCN(c6cc(OC)cc(C(=O)NC7CCC(=O)NC7=O)c6F)CC5)CC4)ncc3Cl)ccc2n(C(C)C)c1=O` (centres unmarked) [compound 473, 3-[4-({4-[5-chloro-4-({3-[(methylcarbamoyl)methoxy]-2-oxo-1-(propan-2-yl)-1,2-dihydroquinolin-6-yl}amino)pyrimidin-2-yl]piperazin-1-yl}methyl)piperidin-1-yl]-N-(2,6-dioxopiperidin-3-yl)-2-fluoro-5-methoxybenzamide], the IC50 on BCL6 [1] (read-out: IC50) is under 10 nM. Also, at BCL6 [2], the Dmax was 50 to 70%.

As for `CNC(=O)COc1cc2cc(Nc3nc(N4CCC(OCCCCOc5cc(-c6scnc6C)ccc5CNC(=O)[C@@H]5C[C@@H](O)CN5C(=O)C(c5cc(C)no5)C(C)C)CC4)ncc3Cl)ccc2n(C)c1=O` (stereo partly drawn) [compound 159, (2S,4R)-N-(2-(4-((1-(5-chloro-4-((1-methyl-3-(2-(methylamino)-2-oxoethoxy)-2-oxo-1,2-dihydroquinolin-6-yl)amino)pyrimidin-2-yl)piperidin-4-yl)oxy)butoxy)-4-(4-methylthiazol-5-yl)benzyl)-4-hydroxy-1-(3-methyl-2-(3-methylisoxazol-5-yl)butanoyl)pyrrolidine-2-carboxamide], on BCL6 [1] (setting [3]), the IC50 is 10 to 50 nM. Moreover, the maximal degradation (Dmax) at BCL6 [2] (maximum, class symbols A-C) was under 50%. Further, the DC50 at BCL6 [2] was over 100 nM.

Take `CNC(=O)COc1cc2cc(Nc3nc(N4CCC5(CCN(CC6CCN(c7cccc8c7C(=O)N(C7CCC(=O)NC7=O)C8=O)CC6)CC5)C4)ncc3Cl)ccc2n(C(C)C)c1=O` (centres unmarked) [compound 513, 2-{[6-({5-chloro-2-[8-({1-[2-(2,6-dioxopiperidin-3-yl)-1,3-dioxo-2,3-dihydro-1H-isoindol-4-yl]piperidin-4-yl}methyl)-2,8-diazaspiro[4.5]decan-2-yl]pyrimidin-4-yl}amino)-2-oxo-1-(propan-2-yl)-1,2-dihydroquinolin-3-yl]oxy}-N-methylacetamide]: on BCL6 [1] (read-out: IC50), the IC50 is under 10 nM. The same molecule came in with a maximal degradation (Dmax) on BCL6 [2] of at least 70%.

For `CNC(=O)COc1cc2cc(Nc3nc(N4CCN(CC5CCN(c6cccc7c6C(=O)N(C6CCC(=O)NC6=O)C7=O)CC5)CC4)ncc3Cl)ccc2n(CC2COC2)c1=O` (centres unmarked) [compound 485, 2-{[6-({5-chloro-2-[4-({1-[2-(2,6-dioxopiperidin-3-yl)-1,3-dioxo-2,3-dihydro-1H-isoindol-4-yl]piperidin-4-yl}methyl)piperazin-1-yl]pyrimidin-4-yl}amino)-1-[(oxetan-3-yl)methyl]-2-oxo-1,2-dihydroquinolin-3-yl]oxy}-N-methylacetamide], the IC50 at BCL6 [1] (read-out: IC50) was under 10 nM. This molecule came in with a maximal degradation (Dmax) on BCL6 [2] of 50 to 70%.

Consider `CNC(=O)COc1cc2cc(Nc3nc(N4CCC[C@H](COc5cccc6c5C(=O)N(C5CCC(=O)NC5=O)C6=O)C4)ncc3Cl)ccc2n(CC2COC2)c1=O` (stereo partly drawn) [compound 491, 2-{[6-({5-chloro-2-[(3S)-3-({[2-(2,6-dioxopiperidin-3-yl)-1,3-dioxo-2,3-dihydro-1H-isoindol-4-yl]oxy}methyl)piperidin-1-yl]pyrimidin-4-yl}amino)-1-[(oxetan-3-yl)methyl]-2-oxo-1,2-dihydroquinolin-3-yl]oxy}-N-methylacetamide], for which the IC50 on BCL6 [1] (read-out: IC50) is at least 100 nM. On BCL6 [2], the Dmax was at least 70%.
